This is an account of results in patent EP0861891A1, “Compounds for modulating cell negative regulations and biological applications thereof” (INSTITUT NATIONAL DE LA SANTE ET DE LA RECHERCHE MEDICALE …, priority 1996, dated 1998).

Where a SMILES comes first, the peptide text is derived from it.

In the assay the target is T1, GST-SHP-1.SH2(C) (Mus musculus, UniProt P29351).
T1 construct: recombinant fusion proteins corresponding to the isolated N- and C-SH2 domains of SHP-1; made in house; host or cells: E. coli DH5α
T1 sequence (P29351 110-213 limits assumed): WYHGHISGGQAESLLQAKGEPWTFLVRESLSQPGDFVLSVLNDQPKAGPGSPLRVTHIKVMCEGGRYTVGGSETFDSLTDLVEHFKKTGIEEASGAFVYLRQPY
Briefly: Surface plasmon resonance, binding of phosphorylated KIR ITIM peptides to SHP-1 C-SH2 domain. The arrangement: species or system murine. As to conditions: calculated from koff/kon. As to the method:
Fusion proteins and surface plasmon resonance analysis. Surface plasmon resonance (SPR) measurements were performed on a BIAcore™ (Pharmacia). The GST-SHP-1.SH2(NC), GST-SHP-1.SH2(N), GST-SHP-1.SH2(C), GST-SHIP.SH2 fusion proteins generated from the murine phosphatase cDNA, were purified from DH5α lysates. Briefly, overnight culture at 37°C in LB medium containing 50 µg/ml ampicillin was diluted 1/10 in fresh medium, and incubated until the absorbance at 600 nm reaches 1-2. At that point, IPTG was added (1mM), and incubation continued for an additional 4 hours at 37°C. […] Protein purity was assessed by 12.5 % SDS-PAGE, and Coomassie blue staining. […] Then, biotinylated peptides were injected, and their binding to streptavidine-coated microchips was assessed using anti-phosphotyrosine 4G10 mAb (UBI).
The measurement of phosphorylated p58.2 peptide binding to GST-SHP-1.SH2(N) and GST-SHP-1.SH2(C) fusion proteins was at a constant 5 µl/min flow rate. […] Results are expressed as corrected resonance units (CRU) corresponding to the raw RU values subtracted from background RU value due to the injection medium. In this representative experiment, 130 RU of p58.2.1 peptide and 160 RU of p58.2.2 peptide were immobilized on microchips. koff and kon were calculated from three independent measurements using the BIAevaluation 2.0 software. Kd was calculated from koff/kon.

On to `CC[C@H](C)[C@H](NC(=O)[C@H](CC(=O)O)NC(=O)[C@@H](NC(=O)[C@@H]1CCCN1C(=O)[C@@H]1CCCN1C(=O)[C@@H](NC(=O)[C@H](CCCCN)NC(=O)[C@@H]1CCCN1C(=O)[C@H](CCCNC(=N)N)NC(=O)[C@H](CCC(N)=O)NC(=O)[C@H](CO)NC(=O)[C@@H]1CCCN1C(=O)[C@H](CCCNC(=N)N)NC(=O)CCCC[C@@H]1SC[C@@H]2NC(=O)N[C@@H]21)[C@@H](C)O)[C@@H](C)O)C(=O)N[C@H](C(=O)N[C@H](C(=O)N[C@@H](Cc1ccc(OP(=O)(O)O)cc1)C(=O)N[C@H](C(=O)N[C@@H](CCC(=O)O)C(=O)N[C@@H](CC(C)C)C(=O)N1CCC[C@H]1C(=O)N[C@@H](CC(N)=O)C(=O)N[C@@H](C)C(=O)N[C@@H](CCC(=O)O)C(=O)N1CCC[C@H]1C(=O)O)[C@@H](C)O)C(C)C)[C@@H](C)CC` [p58.2.2, RPSQRPKTPPTDIIVY333TELPNAEP] (HELM PEPTIDE1{[O=C1N[C@H]2[C@H](CS[C@H]2CCCCC(=O)[*:2])N1].R.P.S.Q.R.P.K.T.P.P.T.D.I.I.V.[O=C([C@H](Cc1ccc(OP(=O)(O)O)cc1)N[*:1])[*:2]].T.E.L.P.N.A.E.P}$$$$V2.0), for which the Kd is 0.545 µM.

As a reminder, the Kd is a measure of binding affinity in units of concentration.
